# From ChEMBL document CHEMBL5055685, “Discovery of the First Potent IDO1/IDO2 Dual Inhibitors: A Promising Strategy for Cancer Immunotherapy” (J Med Chem, 2021)
# Activity calls are given as the source filed them. The calls are words filed in the database; no cut-off is given here.
# Legend:
# [1] = Intrinsic clearance in monkey liver microsomes; format: ADME, Macaca mulatta, Microsome; conditions: rhesus monkey, read-out: CLH
# [2] = system: HCT-116; test: Antitumor immunity in BALB/c mouse xenografted with human HCT-116 cells assessed as increase in IFNgamma in serum by […]; format: functional, cell-based
# [3] = system: HCT-116; test: Antitumor immunity in BALB/c mouse xenografted with human HCT-116 cells assessed as necrotic Treg cells in spleen by propidium iodide staining based flow cytometry analysis (reference value: 1.47 %); format: functional
# [4] = system: HCT-116; test: Antitumor immunity in BALB/c mouse xenografted with human HCT-116 cells assessed as induction of apoptosis of CD4+ T-lymphocytes in spleen by propidium iodide staining based flow cytometry analysis (reference value: 33.9 %); format: functional
# [5] = biological target: Aryl hydrocarbon receptor (Homo sapiens, UniProt P35869); test: Activation of AhR (unknown origin) assessed as effect on CYP1A1 mRNA expression measured after 24 hrs by quantitative RT-PCR analysis; format: ADME
# [6] = biological target: TGF-beta receptor type-1 (Homo sapiens) (UniProt P36897); test: Inhibition of ALK5 (unknown origin) at 1 uM
# [7] = biological target: NUAK family SNF1-like kinase 1 (Homo sapiens) (UniProt O60285); test: Inhibition of ARK5 (unknown origin) at 1 uM
# [8] = biological target: Tyrosine-protein kinase Blk (Homo sapiens) (UniProt P51451); test: Inhibition of BLK (unknown origin) at 1 uM
# [9] = biological target: Bone morphogenetic protein receptor type-2 (Homo sapiens) (UniProt Q13873); test: Inhibition of BMPR2 (unknown origin) at 1 uM
# [10] = biological target: Serine/threonine-protein kinase BRSK1 (Homo sapiens) (UniProt Q8TDC3); test: Inhibition of BRSK1 (unknown origin) at 1 uM
# [11] = biological target: Serine/threonine-protein kinase BRSK2 (Homo sapiens) (UniProt Q8IWQ3); test: Inhibition of BRSK2 (unknown origin) at 1 uM
# [12] = biological target: CDK3/Cyclin E (Homo sapiens) (UniProt P24864+Q00526); test: Inhibition of CDK3/cyclin-E (unknown origin) at 1 uM; format: protein-complex assay
# [13] = biological target: Cyclin-dependent kinase 4/cyclin D1 (Homo sapiens) (UniProt P11802+P24385); test: Inhibition of CDK4/cyclin-D1 (unknown origin) at 1 uM; format: protein-complex assay
# [14] = biological target: CDK9/cyclin T1 (Homo sapiens) (UniProt O60563+P50750); test: Inhibition of CDK9/cyclin-T1 (unknown origin) at 1 uM; format: protein-complex assay
# [15] = biological target: CDK9/Cyclin-T2 (Homo sapiens) (UniProt P50750+O60583); test: Inhibition of CDK9/cyclin-T2 (unknown origin) at 1 uM; format: protein-complex assay
# [16] = biological target: Serine/threonine-protein kinase Chk1 (Homo sapiens) (UniProt O14757); test: Inhibition of CHK1 (unknown origin) at 1 uM
# [17] = biological target: Dual specificity protein kinase CLK1 (Homo sapiens) (UniProt P49759); test: Inhibition of CLK1 (unknown origin) at 1 uM
# [18] = biological target: Focal adhesion kinase 1 (Homo sapiens) (UniProt Q05397); test: Inhibition of FAK (unknown origin) at 1 uM
# [19] = biological target: Tyrosine-protein kinase Fgr (Homo sapiens) (UniProt P09769); test: Inhibition of FGR (unknown origin) at 1 uM
# [20] = biological target: Receptor-type tyrosine-protein kinase FLT3 (Homo sapiens) (UniProt P36888); test: Inhibition of FLT3 (unknown origin) at 1 uM
# [21] = biological target: Vascular endothelial growth factor receptor 3 (Homo sapiens) (UniProt P35916); test: Inhibition of FLT4 (unknown origin) at 1 uM
# [22] = biological target: Glycogen synthase kinase-3 beta (Homo sapiens) (UniProt P49841); test: Inhibition of GSK3B (unknown origin) at 1 uM
# [23] = biological target: Tyrosine-protein kinase ITK/TSK (Homo sapiens) (UniProt Q08881); test: Inhibition of ITK (unknown origin) at 1 uM
# [24] = biological target: Kinase suppressor of Ras 1 (Homo sapiens) (UniProt Q8IVT5); test: Inhibition of KSR1 (unknown origin) at 1 uM
# [25] = biological target: Serine/threonine-protein kinase LATS2 (Homo sapiens) (UniProt Q9NRM7); test: Inhibition of LATS2 (unknown origin) at 1 uM
# [26] = biological target: MAP kinase-activated protein kinase 2 (Homo sapiens) (UniProt P49137); test: Inhibition of MAPKAPK2 (unknown origin) at 1 uM
# [27] = biological target: MAP kinase-activated protein kinase 5 (Homo sapiens) (UniProt Q8IW41); test: Inhibition of MAPKAPK5 (unknown origin) at 1 uM
# [28] = biological target: MAP/microtubule affinity-regulating kinase 3 (Homo sapiens) (UniProt P27448); test: Inhibition of MARK3 (unknown origin) at 1 uM
# [29] = biological target: Mitogen-activated protein kinase kinase kinase 1 (Homo sapiens) (UniProt Q13233); test: Inhibition of MEKK1 (unknown origin) at 1 uM
# [30] = species on record: Homo sapiens; test: Inhibition of MLCK (unknown origin) at 1 uM
# [31] = biological target: Serine/threonine-protein kinase Nek2 (Homo sapiens) (UniProt P51955); test: Inhibition of NEK2 (unknown origin) at 1 uM
# [32] = biological target: Serine/threonine-protein kinase NLK (Homo sapiens) (UniProt Q9UBE8); test: Inhibition of NLK (unknown origin) at 1 uM
# [33] = biological target: Mitogen-activated protein kinase 11 (Homo sapiens) (UniProt Q15759); test: Inhibition of p38beta (unknown origin) at 1 uM
# [34] = biological target: Lymphokine-activated killer T-cell-originated protein kinase (Homo sapiens) (UniProt Q96KB5); test: Inhibition of PBK (unknown origin) at 1 uM
# [35] = biological target: Serine/threonine-protein kinase pim-2 (Homo sapiens) (UniProt Q9P1W9); test: Inhibition of PIM2 (unknown origin) at 1 uM
# [36] = biological target: Serine/threonine-protein kinase pim-3 (Homo sapiens) (UniProt Q86V86); test: Inhibition of PIM3 (unknown origin) at 1 uM
# [37] = biological target: cAMP-dependent protein kinase catalytic subunit alpha (Homo sapiens) (UniProt P17612); test: Inhibition of PKA (unknown origin) at 1 uM
# [38] = biological target: cAMP-dependent protein kinase catalytic subunit gamma (Homo sapiens) (UniProt P22612); test: Inhibition of PKAcg (unknown origin) at 1 uM
# [39] = biological target: Protein kinase C beta type (Homo sapiens) (UniProt P05771); test: Inhibition of PKCb1 (unknown origin) at 1 uM
# [40] = biological target: Serine/threonine-protein kinase TAO2 (Homo sapiens) (UniProt Q9UL54); test: Inhibition of TAOK2 (unknown origin) at 1 uM
# [41] = biological target: Dual specificity testis-specific protein kinase 1 (Homo sapiens) (UniProt Q15569); test: Inhibition of TESK1 (unknown origin) at 1 uM
# [42] = biological target: Serine/threonine-protein kinase ULK3 (Homo sapiens) (UniProt Q6PHR2); test: Inhibition of ULK3 (unknown origin) at 1 uM
# [43] = biological target: Serine/threonine-protein kinase OSR1 (Homo sapiens) (UniProt O95747); test: Inhibition of OSR1 (unknown origin) at 1 uM
# Serine/threonine-protein kinase Chk1 (Homo sapiens), sequence (O14757 whole entry): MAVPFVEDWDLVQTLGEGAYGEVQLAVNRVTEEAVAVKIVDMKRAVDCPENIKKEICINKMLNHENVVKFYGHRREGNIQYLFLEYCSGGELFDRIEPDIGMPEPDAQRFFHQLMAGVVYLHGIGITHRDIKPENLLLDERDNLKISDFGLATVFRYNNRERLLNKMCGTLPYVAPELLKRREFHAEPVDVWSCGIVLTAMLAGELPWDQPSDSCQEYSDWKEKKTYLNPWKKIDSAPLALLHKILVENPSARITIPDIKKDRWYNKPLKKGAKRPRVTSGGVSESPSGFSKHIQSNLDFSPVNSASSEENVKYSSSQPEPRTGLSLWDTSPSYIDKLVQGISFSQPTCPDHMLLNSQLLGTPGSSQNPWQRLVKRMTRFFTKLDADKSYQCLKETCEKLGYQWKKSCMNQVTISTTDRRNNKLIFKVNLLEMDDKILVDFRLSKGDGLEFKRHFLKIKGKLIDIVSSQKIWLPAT
# Bone morphogenetic protein receptor type-2 (Homo sapiens), sequence (Q13873 whole entry): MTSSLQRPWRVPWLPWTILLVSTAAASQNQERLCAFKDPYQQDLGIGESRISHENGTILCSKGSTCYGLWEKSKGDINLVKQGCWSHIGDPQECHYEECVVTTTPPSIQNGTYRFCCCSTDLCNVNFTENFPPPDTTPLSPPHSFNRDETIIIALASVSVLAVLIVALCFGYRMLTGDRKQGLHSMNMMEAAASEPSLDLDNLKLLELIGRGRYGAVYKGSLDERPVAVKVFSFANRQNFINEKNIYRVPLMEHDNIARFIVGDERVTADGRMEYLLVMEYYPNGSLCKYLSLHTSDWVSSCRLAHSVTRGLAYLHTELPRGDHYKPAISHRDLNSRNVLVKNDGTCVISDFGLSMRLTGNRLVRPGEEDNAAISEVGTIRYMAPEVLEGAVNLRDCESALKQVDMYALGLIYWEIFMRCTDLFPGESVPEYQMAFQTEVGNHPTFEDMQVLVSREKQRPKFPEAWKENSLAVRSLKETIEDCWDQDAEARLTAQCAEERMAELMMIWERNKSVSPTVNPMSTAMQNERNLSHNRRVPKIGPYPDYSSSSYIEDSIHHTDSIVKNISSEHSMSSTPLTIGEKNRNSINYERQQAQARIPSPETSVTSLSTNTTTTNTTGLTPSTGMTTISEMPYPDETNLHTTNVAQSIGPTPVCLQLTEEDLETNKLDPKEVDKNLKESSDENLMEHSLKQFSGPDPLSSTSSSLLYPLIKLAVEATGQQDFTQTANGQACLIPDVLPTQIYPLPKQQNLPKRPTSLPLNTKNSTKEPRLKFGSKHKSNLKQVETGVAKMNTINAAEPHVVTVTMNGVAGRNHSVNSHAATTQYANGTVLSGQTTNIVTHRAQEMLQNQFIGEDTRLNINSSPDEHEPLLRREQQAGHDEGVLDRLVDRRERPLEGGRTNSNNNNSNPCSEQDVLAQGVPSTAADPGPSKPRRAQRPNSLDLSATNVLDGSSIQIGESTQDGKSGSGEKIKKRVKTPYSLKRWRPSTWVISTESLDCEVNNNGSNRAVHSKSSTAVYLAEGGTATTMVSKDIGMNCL
# Aryl hydrocarbon receptor, sequence (P35869 whole entry): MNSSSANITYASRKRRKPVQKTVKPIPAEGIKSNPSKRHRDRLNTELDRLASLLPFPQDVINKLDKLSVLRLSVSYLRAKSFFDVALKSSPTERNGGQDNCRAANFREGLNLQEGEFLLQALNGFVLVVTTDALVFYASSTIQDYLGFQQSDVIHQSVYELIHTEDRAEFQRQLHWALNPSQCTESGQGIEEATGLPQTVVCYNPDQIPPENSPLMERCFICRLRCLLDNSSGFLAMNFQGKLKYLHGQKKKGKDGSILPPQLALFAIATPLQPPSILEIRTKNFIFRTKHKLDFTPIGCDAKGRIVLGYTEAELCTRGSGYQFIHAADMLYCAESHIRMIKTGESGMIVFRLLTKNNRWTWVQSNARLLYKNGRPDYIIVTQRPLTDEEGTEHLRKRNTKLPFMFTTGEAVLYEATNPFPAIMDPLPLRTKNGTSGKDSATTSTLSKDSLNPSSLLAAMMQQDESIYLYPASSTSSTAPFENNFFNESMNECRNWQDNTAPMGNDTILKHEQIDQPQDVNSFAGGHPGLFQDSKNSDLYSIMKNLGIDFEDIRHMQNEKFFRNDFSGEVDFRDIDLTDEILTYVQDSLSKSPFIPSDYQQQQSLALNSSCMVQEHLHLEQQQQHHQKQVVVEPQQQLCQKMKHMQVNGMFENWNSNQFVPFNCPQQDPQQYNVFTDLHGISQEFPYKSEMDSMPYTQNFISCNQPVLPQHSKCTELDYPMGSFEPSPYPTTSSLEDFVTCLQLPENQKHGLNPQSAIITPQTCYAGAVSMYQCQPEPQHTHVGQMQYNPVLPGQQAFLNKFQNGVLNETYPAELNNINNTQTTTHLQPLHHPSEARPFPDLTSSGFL
# Mitogen-activated protein kinase 11 (Homo sapiens), sequence (Q15759 whole entry): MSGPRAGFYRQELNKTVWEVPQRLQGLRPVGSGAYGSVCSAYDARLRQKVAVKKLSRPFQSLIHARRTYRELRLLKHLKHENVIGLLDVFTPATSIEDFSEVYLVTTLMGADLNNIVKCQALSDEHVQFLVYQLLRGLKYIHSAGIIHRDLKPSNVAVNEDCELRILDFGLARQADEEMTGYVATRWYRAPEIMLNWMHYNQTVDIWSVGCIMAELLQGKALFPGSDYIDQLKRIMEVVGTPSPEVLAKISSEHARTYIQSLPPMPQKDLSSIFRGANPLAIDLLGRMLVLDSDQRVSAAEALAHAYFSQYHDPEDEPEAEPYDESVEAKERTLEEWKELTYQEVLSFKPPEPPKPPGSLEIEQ
# Glycogen synthase kinase-3 beta (Homo sapiens), sequence (P49841 whole entry, looked up): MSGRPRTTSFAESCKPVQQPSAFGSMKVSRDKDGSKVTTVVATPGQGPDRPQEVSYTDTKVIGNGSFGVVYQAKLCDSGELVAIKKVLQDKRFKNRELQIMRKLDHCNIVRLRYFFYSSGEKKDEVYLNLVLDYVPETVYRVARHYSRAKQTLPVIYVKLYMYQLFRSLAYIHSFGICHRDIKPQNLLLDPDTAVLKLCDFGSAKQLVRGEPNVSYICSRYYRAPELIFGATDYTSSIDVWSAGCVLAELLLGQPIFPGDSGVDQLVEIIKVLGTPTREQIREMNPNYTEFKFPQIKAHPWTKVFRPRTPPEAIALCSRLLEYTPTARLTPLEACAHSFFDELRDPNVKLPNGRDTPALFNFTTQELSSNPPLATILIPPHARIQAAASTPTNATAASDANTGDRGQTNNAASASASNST
# Tyrosine-protein kinase Fgr (Homo sapiens), sequence (P09769 2-529 limits assumed): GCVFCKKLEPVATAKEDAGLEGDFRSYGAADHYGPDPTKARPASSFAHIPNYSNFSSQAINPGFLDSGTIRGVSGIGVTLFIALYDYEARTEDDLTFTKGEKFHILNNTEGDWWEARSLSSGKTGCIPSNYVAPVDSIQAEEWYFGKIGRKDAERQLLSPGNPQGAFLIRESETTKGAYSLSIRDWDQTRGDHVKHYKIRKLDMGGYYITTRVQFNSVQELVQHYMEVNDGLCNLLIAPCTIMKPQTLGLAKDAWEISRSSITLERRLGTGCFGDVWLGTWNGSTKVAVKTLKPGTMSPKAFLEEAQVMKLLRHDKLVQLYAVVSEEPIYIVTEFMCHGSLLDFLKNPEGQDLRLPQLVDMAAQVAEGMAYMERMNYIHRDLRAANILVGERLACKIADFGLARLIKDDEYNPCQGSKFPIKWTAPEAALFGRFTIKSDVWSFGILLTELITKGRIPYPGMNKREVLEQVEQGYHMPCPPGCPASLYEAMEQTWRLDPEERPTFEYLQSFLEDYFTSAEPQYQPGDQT
# Protein kinase C beta type (Homo sapiens), sequence (P05771 2-671 limits assumed): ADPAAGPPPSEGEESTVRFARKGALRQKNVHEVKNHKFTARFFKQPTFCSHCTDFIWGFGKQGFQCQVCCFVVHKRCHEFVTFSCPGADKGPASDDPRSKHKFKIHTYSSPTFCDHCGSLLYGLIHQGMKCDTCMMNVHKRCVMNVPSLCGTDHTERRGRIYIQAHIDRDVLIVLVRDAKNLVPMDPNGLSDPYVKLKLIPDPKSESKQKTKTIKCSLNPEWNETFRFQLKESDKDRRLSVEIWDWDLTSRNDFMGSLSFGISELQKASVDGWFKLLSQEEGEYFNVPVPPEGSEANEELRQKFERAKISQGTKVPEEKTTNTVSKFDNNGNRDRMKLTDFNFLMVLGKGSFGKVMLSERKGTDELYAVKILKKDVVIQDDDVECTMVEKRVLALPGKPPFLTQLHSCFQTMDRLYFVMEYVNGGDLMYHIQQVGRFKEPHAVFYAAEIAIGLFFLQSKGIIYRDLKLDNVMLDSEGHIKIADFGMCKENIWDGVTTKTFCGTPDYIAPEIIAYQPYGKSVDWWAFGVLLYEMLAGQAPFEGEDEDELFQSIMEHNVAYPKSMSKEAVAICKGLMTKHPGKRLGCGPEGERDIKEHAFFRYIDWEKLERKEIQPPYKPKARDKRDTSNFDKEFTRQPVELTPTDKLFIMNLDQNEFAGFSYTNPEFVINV
# Serine/threonine-protein kinase NLK (Homo sapiens), sequence (Q9UBE8 whole entry): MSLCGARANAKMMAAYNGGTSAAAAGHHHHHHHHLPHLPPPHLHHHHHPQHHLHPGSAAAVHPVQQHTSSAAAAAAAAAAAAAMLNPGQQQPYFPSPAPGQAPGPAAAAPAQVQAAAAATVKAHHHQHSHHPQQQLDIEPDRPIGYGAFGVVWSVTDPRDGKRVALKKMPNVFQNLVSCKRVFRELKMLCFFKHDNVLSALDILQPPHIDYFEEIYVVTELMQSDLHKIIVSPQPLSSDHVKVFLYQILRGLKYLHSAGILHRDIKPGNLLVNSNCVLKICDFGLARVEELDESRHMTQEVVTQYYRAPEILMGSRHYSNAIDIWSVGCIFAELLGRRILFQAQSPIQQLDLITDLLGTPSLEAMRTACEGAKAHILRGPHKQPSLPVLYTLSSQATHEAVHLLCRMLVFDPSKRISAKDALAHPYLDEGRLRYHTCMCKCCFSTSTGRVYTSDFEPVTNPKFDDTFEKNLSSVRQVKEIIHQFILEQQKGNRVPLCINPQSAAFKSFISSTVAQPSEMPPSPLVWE
smiles,measurement,setting,value
OCCOCc1cn(CCNc2nonc2/C(=N/O)Nc2ccc(F)c(Br)c2)nn1,microsomal CLint,[1],36 µL/min/mg
same,Activity,[2],Active
same,Activity,[3],0.78%
same,Activity,[4],15.3%
same,Activity,[5],Not Active
same,inhibition,[6],inactive
same,inhibition,[7],inactive
same,inhibition,[8],inactive
same,inhibition,[9],inactive
same,inhibition,[10],inactive
same,inhibition,[11],inactive
same,inhibition,[12],inactive
same,inhibition,[13],inactive
same,inhibition,[14],inactive
same,inhibition,[15],inactive
same,inhibition,[16],inactive
same,inhibition,[17],inactive
same,inhibition,[18],inactive
same,inhibition,[19],inactive
same,inhibition,[20],inactive
same,inhibition,[21],inactive
same,inhibition,[22],inactive
same,inhibition,[23],inactive
same,inhibition,[24],inactive
same,inhibition,[25],inactive
same,inhibition,[26],inactive
same,inhibition,[27],inactive
same,inhibition,[28],inactive
same,inhibition,[29],inactive
same,inhibition,[30],inactive
same,inhibition,[31],inactive
same,inhibition,[32],inactive
same,inhibition,[33],inactive
same,inhibition,[34],inactive
same,inhibition,[35],inactive
same,inhibition,[36],inactive
same,inhibition,[37],inactive
same,inhibition,[38],inactive
same,inhibition,[39],inactive
same,inhibition,[40],inactive
same,inhibition,[41],inactive
same,inhibition,[42],inactive
same,inhibition,[43],inactive
